pEC50, pIC50: −log10 of the molar value. Where a name gives a salt, the structure may show the parent alone. Read-outs that look alike come from different tables or passages of the source. Where a SMILES comes first, the peptide text is derived from it. [ ]: non-standard residue; d: D form. The star is where a group is joined. Sta = CC(C)C[C@H](N)[C@@H](O)CC(=O)O; Isovaleryl = CC(C)CC(=O)*
Assays:
Assay in all cases: cells
HeLa cells = type: cell-based; conditions: read-out: CellCycle G2/M
HCT116 = type: cell-based
SW480 = type: cell-based
[1] = test system: nuclear β-catenin in C2C12 cells; type: cell-based
INS-1E cells = type: cell-based, rat
[2] = test system: endothelial tube formation in co-cultures of ECFCs and ADSCs treated with VEGF; type: cell-based, human
[3] = test system: HCT116 cells treated with a GSK3β inhibitor; type: cell-based
DLD-1 = type: cell-based
NCI-H716 cells = type: cell-based, Human
[4] = Homo sapiens, HeLa, S2 Table, HeLa, 20 = no response at highest concentration
[5] = Homo sapiens, SW480, basal, SW480, read-out: Basal_Viability ATP SW480
[6] = Homo sapiens; read-out: Anti-Angiogenesis
[7] = Homo sapiens, HCT-116, basal, HCT116, read-out: Basal_Viability ATP HCT116
[8] = Mus musculus, C2C12, S2 Table, module primary assay, 20 / 20.1 codes per legend, read-out: Wnt Pathway
[9] = Rattus norvegicus, INS-1E; read-out: Insulin Secretion
[10] = Homo sapiens, HCT-116, HCT116 pretreated with GSK3b inhibitor, read-out: GSK3b inh pretreated_Viability ATP HCT116
[11] = Homo sapiens, DLD-1, basal, DLD-1, read-out: Basal_Viability ATP DLD-1
[12] = Homo sapiens, NCI-H716; read-out: GLP 1 Secretion
[13] = Homo sapiens, HeLa, IC50 / EC50, HeLa
[14] = Homo sapiens, HCT-116, basal, read-out: Basal_Viability ATP HCT116
[15] = Homo sapiens, SW480, basal, read-out: Basal_Viability ATP SW480
[16] = Mus musculus, C2C12, IC50 / EC50, C2C12 beta-catenin translocation, read-out: Wnt Pathway
[17] = Rattus norvegicus; IC50 / EC50; INS-1E; read-out: Insulin Secretion
[18] = Homo sapiens, IC50 / EC50; endothelial tube area, ADSC/ECFC co-culture; read-out: Anti-Angiogenesis
[19] = Homo sapiens, HCT-116, GSK3b inhibitor pretreated, read-out: GSK3b inh pretreated_Viability ATP HCT116
[20] = Homo sapiens, DLD-1, basal, read-out: Basal_Viability ATP DLD-1
[21] = Homo sapiens; IC50 / EC50; NCI-H716; read-out: GLP 1 Secretion

SMILES	pEC50 (HeLa cells; [4])	pIC50 (SW480; [5])	pIC50 [2, 6]	pIC50 (HCT116; [7])	pEC50 [1, 8]	pEC50 (INS-1E cells; [9])	pIC50 [3, 10]	pIC50 (DLD-1; [11])	pEC50 (NCI-H716 cells; [12])	pEC50 (HeLa cells; [13])	pIC50 (HCT116; [14])	pIC50 (SW480; [15])	pEC50 [1, 16]	pEC50 (INS-1E cells; [17])	pIC50 [2, 18]	pIC50 [3, 19]	pIC50 (DLD-1; [20])	pEC50 (NCI-H716 cells; [21])	also measured
Cc1ccc(Nc2nccc(N(C)c3ccc4c(C)n(C)nc4c3)n2)cc1S(N)(=O)=O [pazopanib, reference compound]	< 5.00	5.25	7.33	–	–	–	–	–	–	–	–	–	–	–	–	–	–	–	pIC50 (HCT116; Homo sapiens, HCT-116, 72 h, read-out: HCT-116 viab. IC50, Table 2, basal, 72 h, Cell TiterGlo, non-adherent, 20 coded): < 4.70; pIC50 (SW480; Homo sapiens, SW480, 72 h, Table 2, 72 h, Cell TiterGlo, non-adherent, 20 coded, read-out: SW480 viab. IC50): 5.24; activity in the Wnt potentiation module (in words) [1]: None of these agents, however, possessed appreciable activity; pEC50 ([1]; Mus musculus, C2C12, Table 2, C2C12, […], 20 / 20.1 coded, read-out: Wnt pot. EC50): < 5.00; pEC50 (INS-1E cells; Rattus norvegicus, INS-1E; read-out: Ins. sec. EC50): < 5.00; pIC50 ([2]; Homo sapiens; read-out: Anti-Angio IC50): 7.33; pIC50 ([3]; Homo sapiens, HCT-116, 72 h, read-out: HCT-116 (GSK3β) viab. IC50): < 4.70; pIC50 (DLD-1; Homo sapiens, DLD-1, 72 h, Table 2, 72 h, Cell TiterGlo, non-adherent, 20 coded, read-out: DLD-1 viab. IC50): < 4.70; pEC50 (NCI-H716 cells; Homo sapiens, NCI-H716; read-out: GLP1 sec. EC50): < 5.00
CC(C)CC(=O)N[C@H](C(=O)N[C@H](C(=O)N[C@@H](CC(C)C)[C@@H](O)CC(=O)N[C@@H](C)C(=O)N[C@@H](CC(C)C)[C@@H](O)CC(=O)O)C(C)C)C(C)C [Pepstatin] (Isovaleryl-VV[Sta]A[Sta]-OH)	< 5.00	< 4.70	5.90	< 4.70	< 5.00	< 5.00	4.75	< 4.70	< 5.00	–	–	–	–	–	–	–	–	–	–
NCCNc1ccc(NCCN)c2c1C(=O)c1ccncc1C2=O [pixantrone]	–	–	–	–	–	–	–	–	–	7.32	< 4.70	< 4.70	< 5.00	< 5.00	7.33	4.83	< 4.70	< 5.00	–
CC(C)=CCC/C(C)=C/CC/C(C)=C/C(=O)OCC(=O)[C@@]1(O)CC[C@H]2[C@@H]3CCC4=CC(=O)C=C[C@]4(C)[C@H]3[C@@H](O)C[C@@]21C [prednisolone farnesil]	–	–	–	–	–	–	–	–	–	–	–	–	–	–	–	–	–	–	pEC50 (HeLa cells): < 5.00; pIC50 (HCT116; read-out: Basal_Viability ATP HCT116): 5.24; pIC50 (SW480; read-out: Basal_Viability ATP SW480): 5.09; pEC50 ([1]; read-out: Wnt Pathway): < 5.00; pEC50 (INS-1E cells; read-out: Insulin Secretion): < 5.00; pIC50 ([2]; read-out: Anti-Angiogenesis): 5.48; pIC50 ([3]; read-out: GSK3b inh pretreated_Viability ATP HCT116): 5.14; pIC50 (DLD-1; read-out: Basal_Viability ATP DLD-1): 5.10; pEC50 (NCI-H716 cells; read-out: GLP 1 Secretion): < 5.00
C=CC(=O)Nc1cc2c(Nc3ccc(F)c(Cl)c3)ncnc2cc1OCCCN1CCOCC1 [Canertinib]	–	–	–	–	–	–	–	–	–	–	–	–	–	–	–	–	–	–	pEC50 (HeLa cells; Homo sapiens, HeLa): < 5.00; pIC50 (HCT116; Homo sapiens, HCT-116, read-out: Basal_Viability ATP HCT116): 5.43; pIC50 (SW480; Homo sapiens, SW480, read-out: Basal_Viability ATP SW480): 5.92; pEC50 ([1]; Mus musculus, C2C12, read-out: Wnt Pathway): 6.00; pEC50 (INS-1E cells; Rattus norvegicus, INS-1E, read-out: Insulin Secretion): < 5.00; pIC50 ([2]; Homo sapiens, read-out: Anti-Angiogenesis): < 5.00; pIC50 ([3]; Homo sapiens, HCT-116, read-out: GSK3b inh pretreated_Viability ATP HCT116): 5.45; pIC50 (DLD-1; Homo sapiens, DLD-1, read-out: Basal_Viability ATP DLD-1): 6.08; pEC50 (NCI-H716 cells; Homo sapiens, NCI-H716, read-out: GLP 1 Secretion): < 5.00
CCCCCCCCCCCCCCCC[N+](C)(C)Cc1ccccc1 [Cetalkonium chloride]	–	–	–	–	–	–	–	–	–	< 5.00	5.46	5.29	< 5.00	< 5.00	5.60	5.20	5.41	< 5.00	–
O=C1c2c(O)cccc2Cc2cccc(O)c21 [Anthralin]	< 5.00	5.80	6.22	5.66	< 5.00	< 5.00	4.79	7.18	< 5.00	–	–	–	–	–	–	–	–	–	–
O=c1[nH]c(=O)n([C@H]2C[C@H](O)[C@@H](CO)O2)cc1I [idoxuridine]	< 5.00	< 4.70	6.17	< 4.70	< 5.00	< 5.00	< 4.70	< 4.70	< 5.00	–	–	–	–	–	–	–	–	–	–
CC(=O)N(O)CCCCCNC(=O)CCC(=O)N(O)CCCCCNC(=O)CCC(=O)N(O)CCCCCN [Deferoxamine]	< 5.00	< 4.70	5.34	5.07	< 5.00	< 5.00	< 4.70	< 4.70	< 5.00	–	–	–	–	–	–	–	–	–	–
CC(C)OC(=O)OCOP(=O)(CO[C@H](C)Cn1cnc2c(N)ncnc21)OCOC(=O)OC(C)C [Tenofovir disoproxil fumarate]	–	–	–	–	–	–	–	–	–	< 5.00	< 4.70	< 4.70	< 5.00	< 5.00	5.42	< 4.70	4.71	< 5.00	–
Nc1nc(=O)n([C@@H]2O[C@H](CO)[C@@H](O)[C@@H]2F)cc1I [Fiacitabine]	–	–	–	–	–	–	–	–	–	< 5.00	< 4.70	< 4.70	< 5.00	< 5.00	5.46	< 4.70	< 4.70	< 5.00	–

Reference: paper PMC4503722, “Novel Phenotypic Outcomes Identified for a Public Collection of Approved Drugs from a Publicly Accessible Panel of Assays” (PLoS ONE, 2015)
